Counter-ions that a name gives are not always drawn.
Columns and labels:
interleukin (IL)-6 = assay: Human immune cell line THP-1 in vitro assay: IL-6 in supernatant by ELISA after co-treatment with LPS; assay type: cell-based; settings: PMA-differentiated THP1-XBlue cells co-treated with E. coli LPS and composition, 24 hours; percentage to LPS-treated cells (=100%)
Description: (§1) Human Immune Cell Line THP-1 Invitro Assay The following procedure was used to determine the anti-inflammation efficacy: THP1-XBlue™ (Cat No: thpx-sp, InvivoGen) cells were cultured as suspense in RPMI 1640 medium supplemented with 10% FBS, penicillin (10 U/mL)-streptomycin (10 μg/ML). Cells were differentiated in 24-well plates at the density of 5×10^5 cells/well with 100 nM PMA for 72 hours. Cells were then co-treated with pure E. coli ipopolysaccharides (LPS) and various compositions. After 24 hours, the supernatants were collected and measured for interleukin (IL)-6 as a pro-inflammatory biomarker using enzyme-linked immunosorbent assay (ELISA). IL-6 is a cytokine, or cell-signaling protein, encoded in humans by the IL-6 gene which is both pro-inflammatory and anti-inflammatory and which stimulates the immune response to inflammation. Expression of IL-6 was calculated as the percentage to LPS-treated cells which was designated as 100%. It can be considered as no anti-inflammatory effect if the calculated result is over 100%. Cell viability was calculated as the percentage to non-treated cells which was designated as 100%. P value was analyzed by Student's t-test comparing combination groups and individual compound groups (expression of IL-6).

THP1-XBlue cells = assay: Cell viability in the THP-1 in vitro assay; assay type: cell-based, human; settings: PMA-differentiated THP1-XBlue cells co-treated with LPS and composition, 24 hours; percentage to non-treated cells (=100%)
Description: as §1, with “The” for “Human Immune Cell Line THP-1 Invitro Assay The”, “IL-6). P value <0.05 indicates synergistic effect.” for “IL-6).”

| SMILES | expression of IL-6 (%) (interleukin (IL)-6) | Cell Viability (%) (THP1-XBlue cells) |
| --- | --- | --- |
| Cc1cc(CC(C)CC(C)(C)C)n(O)c(=O)c1 (stereo not shown) [B, 1-hydroxy-4-methyl-6-(2,4,4-trimethylpentyl)-2(1H) pyridinone monoethanolamine salt] | 76.4 | 81 |
| OCc1ccccc1O[C@@H]1O[C@H](CO)[C@@H](O)[C@H](O)[C@H]1O [C, salicin] | 65.0 | 86 |

From patent publication US20220401352A1, “A COSMETIC COMPOSITION” (Conopco, Inc., d/b/a UNILEVER, priority 2019, published 2022)
